Experimental findings from patent US10259777B2, “(E)-3-(3,4-dihydroxyphenyl)-N-(prop-2-yn-1-yl)acrylamide for treatment of neurodegenerative diseases” (THE UNIVERSITY OF HONG KONG, priority 2015, dated 2019) are described below.

Assay [1] concerns PC12 cells. The experiment in a line: 6-OHDA-induced nitric oxide production, DAF-FM Diacetate staining. The following applies: 6-OHDA with PACA 5, 10, 20 and 50 μM. Format: cell-based, rat. The protocol: After the treatment with 6-OHDA alone or in combination with PACA at different concentrations, PC12 cells were stained with a fluorescent probe dihydroethidium (DHE) for the production of superoxide anion (A & B) and another fluorescent probe DAF-FM Diacetate for the production of nitric oxide ([…]), respectively. (A) Representative images of DHE-stained cells. 6-OHDA, 200 μM; PACA, 50 (B) PACA inhibited 6-OHDA-induced formation of superoxide ions. PC12 cells were treated with 6-OHDA alone or in combination with PACA for 6 h and subsequently stained with a probe DHE. The images were captured under a fluorescence microscope. The fluorescence was determined by ImageJ software. (C) Representative images of DAF-FM DA-stained cells. 6-OHDA, 200 μM; PACA, 50 μM. (D) PACA inhibited 6-OHDA-induced NO production. PC12 cells were treated with 6-OHDA alone or in combination with PACA for 6 h and subsequently stained with a probe DAF-FM DA. The images were captured under a fluorescence microscope. The fluorescence was determined by ImageJ software.
PC12 cells were treated with 6-OHDA alone or in combination with PACA at the concentrations of 5, 10, 20 and 50 μM. At the end of treatment, PC12 cells were then stained with a fluorescent probe dihydroethidium (DHE) for the production of superoxide anion and another fluorescent probe DAF-FM Diacetate for the production of nitric oxide, respectively.

Assay [2] has as its system heme oxygenase-1 (HO-1). The experiment in a line: HO-1 induction in PC12 cells, Western blot. Format: cell-based, rat. The conditions noted are these: PACA 5 to 100 μM for 24 hours or 20 μM for 3, 6, 12, 24 hours. Here is the method: Induction of HO-1 expression is a key mechanism underlying the neuritogenic effects of PACA. (A & B) Western blot analysis of HO-1 induction. Following PACA treatment at different concentrations (A) and for different time points (B), the cellular proteins were isolated and analyzed by Western blotting for HO-1 expression. GAPDH was analyzed as the control of protein loading. (C) PACA stimulated neurite outgrowth via HO-1-mediated mechanism. PC12 cells were treated with NGF (2 ng/ml) in combination with PACA (5 μM, 20 μM) in presence or absence of HO-1 inhibitor SnPP for 72 hours. Cells were stained by neurite outgrowth staining kit and imaged under a fluorescence microscope. (D) Role of HO-1 induction in the neuritogenic activity of PACA. The images captured in Panel C were analyzed for the number of neurite bearing cells. The cells bearing neurites longer than 20 μm were counted. The values represent means±SD (n=3). **, p<0.01 (+SnPP vs −SnPP).
It is well-known that direct modification of Keap1 causes the dissociation of the Nrf2-Keap1 complex and subsequent expression of heme oxygenase-1 (HO-1). Following the treatment with PACA at the concentrations ranging from 5 to 100 μM for 24 hours or at the concentration of 20 μM for 3, 6, 12, 24 hours, PC12 cells were analyzed by Western blotting for HO-1 induction.
Background: Immunoblotting shows a protein as a band on a membrane.

For assay [3], the system named is primary rat midbrain neurons. The experiment in a line: 6-OHDA-induced neurotoxicity in primary midbrain neurons, MTT and Hoechst 33342/PI staining. The assay is classed as cell-based. The conditions noted are these: 6-OHDA with or without PACA, MTT.
Assay [4] concerns the target T1, Keap1 (Rattus norvegicus, UniProt P57790).
T1 construct: endogenous in cells; host or cells: PC12 (rat pheochromocytoma) cells
Put plainly: Identification of PACA-modified proteins by Click chemistry biotin tagging and affinity isolation. The following applies: 20 μM PACA, biotin tag by Click chemistry, Keap1 antibody pull-down. Format: cell-based. Here is the method:
PACA directly modifies the proteins bearing free cysteine residues after oxidase-mediated oxidation into chemically reactive o-quinone. At the end of 24 hour incubation, a biotin tag was introduced to the proteins that were covalently modified by PACA. Following affinity isolation with anti-Keap1 antibody bead, streptavidin-horseradish peroxidase (HRP) detected Keap1 as the predominant PACA-modified protein with the apparent molecular size of ˜72 kDa. (A) Biotinylation of PACA-modified proteins by Click chemistry. Oxidase represents the enzymes that oxidize PACA to o-quinone, Protein-SH represents the protein bearing free cysteine residues. (B) Procedure for the isolation of PACA-modified proteins. (C) Western blotting analysis of PACA-modified proteins. PC12 cells were treated with PACA (20 μM) for 6 h. […] All protein fractions were resolved by SDS-PAGE and detected by streptavidin-HRP conjugate. […]
PACA is converted to the chemically reactive o-quinone intermediate by the intracellular oxidases after PACA got inside the cells. […] Following gel electrophoresis and Western blotting onto PVDF (polyvinylidene difluoride) membranes, HRP-streptavidin conjugate detected a predominant ˜70 kDa protein band (data not shown). Such protein band was also detected by keap1 antibody through a similar procedure. […] The blots were probed by HRP-conjugated streptavidin, and subsequently detected by chemiluminescence. […]

T1 sequence (P57790 whole entry): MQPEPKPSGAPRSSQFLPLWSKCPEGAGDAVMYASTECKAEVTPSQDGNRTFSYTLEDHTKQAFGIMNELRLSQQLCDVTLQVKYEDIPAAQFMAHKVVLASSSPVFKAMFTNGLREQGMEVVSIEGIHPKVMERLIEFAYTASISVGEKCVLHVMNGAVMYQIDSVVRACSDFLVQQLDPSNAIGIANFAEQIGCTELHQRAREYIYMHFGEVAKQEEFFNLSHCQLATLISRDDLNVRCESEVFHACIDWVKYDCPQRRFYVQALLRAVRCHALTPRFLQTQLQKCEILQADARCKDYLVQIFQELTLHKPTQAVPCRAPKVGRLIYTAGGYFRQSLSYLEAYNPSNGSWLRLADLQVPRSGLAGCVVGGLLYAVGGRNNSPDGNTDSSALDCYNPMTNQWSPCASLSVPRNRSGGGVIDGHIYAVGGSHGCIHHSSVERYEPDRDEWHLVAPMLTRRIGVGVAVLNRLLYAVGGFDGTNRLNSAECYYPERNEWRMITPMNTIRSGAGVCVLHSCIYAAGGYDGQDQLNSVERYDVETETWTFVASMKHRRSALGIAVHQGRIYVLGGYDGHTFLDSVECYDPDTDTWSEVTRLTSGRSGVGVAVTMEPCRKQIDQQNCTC

Consider `C#CCNC(=O)/C=C/c1ccc(O)c(O)c1` [PACA, (E)-3-(3,4-dihydroxyphenyl)-N-(prop-2-yn-1-yl)acrylamide], for which the “6-OHDA-induced formation of NO” value in assay [1] is “significantly attenuated”. Also, the HO-1 expression entry in assay [2] was “induced HO-1 expression in a time- and concentration-dependent manner”. Further, in assay [3], the “6-OHDA neurotoxicity in primary rat midbrain neurons” value is “attenuated 6-hydroxydopamine (6-OHDA) neurotoxicity”. Besides, the “PACA-modified protein isolated from treated PC12 cells” value in assay [4] is listed as “kelch-like ECH-associated protein 1 (Keap1) was isolated as the predominant protein”.
